The test system of one series is IIIB strain of HIV-1. Nature of the series: Anti-HIV-1 activity: protection of infected MT-2 cells, MTT colorimetric method. In kind it is cell-based. On the technique in general: Tetrazolium dyes change colour on reduction, which living cells bring about.
A further series concerns MT-2 human T-cells. Nature of the series: Cytotoxicity: inhibition of MT-2 cell growth. The series is classed as cell-based. The text has this: The preparation of the analogues 4a-h involved the reaction between 2-bromothiazole 1 with the corresponding 5-amino-2-R-phenol 2, followed by reaction with 4-bromo-2-methyl-2-butene in presence of Cs2CO3 as a base (Scheme 1; see Table 1 for antiviral activities (EC50) and cytotoxicities (IC50) of these compounds, as determined using human MT-2 cells infected with IIIB strain of HIV-1).
See, Ruiz-Caro, supra. and Lin, et al., Biochem. Pharmacol. 1994, 47, 171-174.

[1] abbreviates: Table 3, thiazoles 18-23, N/A read as no activity, read-out: EC50.
Setting [2] is: Table 3, cytotoxicity, MT-2 cells, read-out: IC50.
Where [3] appears, read: Table 1, compounds 4a-h, human MT-2 cells infected with IIIB strain of HIV-1, N/A read as no activity, read-out: EC50.
The mark [4] stands for this setting: Table 1, cytotoxicity, MT-2 cells, read-out: IC50.
Setting [5] is: Table 1a, heteroaryl derivatives, N/A read as no activity, read-out: EC50.
Where [6] appears, read: Table 1a, cytotoxicity, MT-2 cells, read-out: IC50.
The mark [7] stands for this setting: Table 1B, for 50% inhibition of MT-2 cell growth, triplicate samples.
Where [8] appears, read: Homo sapiens, MT2, Table 3, cytotoxicity, MT-2 cells, read-out: IC50.
The mark [9] stands for this setting: Homo sapiens, MT2, Table 1a, cytotoxicity, MT-2 cells, read-out: IC50.
Where [10] appears, read: Homo sapiens, MT2, Table of bicyclic-heteroaryl phenyl amines, cytotoxicity, MT-2 cell assays, read-out: IC50.
[11] abbreviates: Table 1B, for 50% protection in MT-2 cells, triplicate samples, NA for EC50 > CC50, read-out: EC50.

Like-named read-outs stand apart in the source and are kept apart here. Some results are limits rather than exact numbers.

Broadly, the IC50 is the midpoint of a concentration-inhibition curve. `CCC(C)=CCOc1cc(Nc2nccs2)ccc1C` (mixture of isomers) [Compound 18b, (E/Z)-N-(4-methyl-3-(3-methylpent-2-enyloxy)phenyl)thiazol-2-amine]: the EC50 in the series on IIIB strain of HIV-1 (setting [1]) was determined as 8 µM. The IC50 with MT-2 human T-cells (setting [2]) was 32 µM. On the same counts, the results for `CCC(C)=CCOc1cc(Nc2nccs2)ccc1CC` (mixture of isomers) [Compound 18e, (E/Z)-N-(4-ethyl-3-(3-methylpent-2-enyloxy)phenyl)thiazol-2-amine] are 10 µM and 29 µM.

As for `CC(C)=CCOc1cccc(Nc2nccs2)c1` [Compound 4a, N-(3-(3-methylbut-2-enyloxy)phenylthiazol)-2-amine], in the series on IIIB strain of HIV-1 (setting [3]), the EC50 was determined as 10 µM. The IC50 in the series with MT-2 human T-cells (setting [4]) is 23 µM. For `CC(C)=CCOc1cc(Nc2nccs2)ccc1C` [Compound 4b, N-(4-methyl-3-(3-methylbut-2-enyloxy)phenylthiazol)-2-amine], the EC50 in the series on IIIB strain of HIV-1 (setting [3]) and in the series on IIIB strain of HIV-1 (setting [5]) was 3 µM throughout. Moreover, the IC50 in the series with MT-2 human T-cells (setting [4]) and with MT-2 human T-cells (setting [6]) was 17 µM throughout.

For the compound `COc1ccc(Nc2nccs2)cc1OCC=C(C)C` [Compound 4c, N-(4-methoxy-3-(3-methylbut-2-enyloxy)phenylthiazol)-2-amine], the EC50 with IIIB strain of HIV-1 (setting [3]) was determined as 3.8 µM. Moreover, the IC50 in the series on MT-2 human T-cells (setting [4]) stood at 42 µM. Consider `CC(C)=CCOc1cc(Nc2nccs2)ccc1Cl` [Compound 4d, N-(4-chloro-3-(3-methylbut-2-enyloxy)phenylthiazol)-2-amine], for which the EC50 in the series with IIIB strain of HIV-1 (setting [3]) and in the series with IIIB strain of HIV-1 (setting [5]) was 0.3 µM throughout. Also, the IC50 in the series on MT-2 human T-cells (setting [4]) and in the series with MT-2 human T-cells (setting [6]) was 26 µM each time. For the compound `CCc1ccc(Nc2nccs2)cc1OCC=C(C)C` [Compound 4e, N-(4-ethyl-3-(3-methylbut-2-enyloxy)phenylthiazol)-2-amine], the EC50 in the series with IIIB strain of HIV-1 (setting [3]) was 5 µM. In the series on MT-2 human T-cells (setting [4]), the IC50 is 31 µM. As to `CCCc1ccc(Nc2nccs2)cc1OCC=C(C)C` [Compound 4f, N-(4-propyl-3-(3-methylbut-2-enyloxy)phenylthiazol)-2-amine], the IC50 in the series on MT-2 human T-cells (setting [4]) amounted to 31 µM. For orientation: CC50 means the concentration that lowers cell viability or growth by half. Low readings indicate harm at low concentration, high ones better tolerance by the cells. In the series with MT-2 human T-cells (setting [7]), `CC(C)=CCOc1cc(Nc2ncnc(Cl)n2)ccc1Cl` [Compound 7a] showed a CC50 of 45 µM. Compound `COc1nc(Cl)nc(Nc2ccc(Cl)c(OCC=C(C)C)c2)n1` [Compound 7f] gave a CC50 in the series on MT-2 human T-cells (setting [7]) of 26 µM.

In the series with MT-2 human T-cells (Homo sapiens, MT2), `CC(C)=CCOc1cccc(Nc2nc(C)cs2)c1` [Compound 8a, 4-Methyl-N-(3-(3-methylbut-2-enyloxy)phenyl)thiazol-2-amine] registered an IC50 of 26 µM. Same read-out and setting: then `CC(C)=CCOc1cc(Nc2nc(C)cs2)ccc1C` [Compound 8b, 4-Methyl-N-(4-methyl-3-(3-methylbut-2-enyloxy)phenyl)thiazol-2-amine], with 15 µM; and `COc1ccc(Nc2nc(C)cs2)cc1OCC=C(C)C` [Compound 8c, 4-Methyl-N-(4-methoxy-3-(3-methylbut-2-enyloxy)phenyl)thiazol-2-amine], with 18 µM.

In the series on MT-2 human T-cells (Homo sapiens, MT2), `CCOC(=O)c1csc(Nc2cccc(OCC=C(C)C)c2)n1` [Compound 9a, Ethyl 2-(3-(3-methylbut-2-enyloxy)phenylamino)thiazole-4-carboxylate] gave an IC50 of 21 µM.

Consider `CCOC(=O)c1csc(Nc2ccc(C)c(OCC=C(C)C)c2)n1` [Compound 9b, Ethyl 2-(4-methyl-3-(3-methylbut-2-enyloxy)phenylamino)thiazole-4-carboxylate], for which, in the series on MT-2 human T-cells (Homo sapiens, MT2), inhibition was half-maximal at 11 µM (IC50).

Compound `CCOC(=O)c1csc(Nc2ccc(OC)c(OCC=C(C)C)c2)n1` [Compound 9c, Ethyl 2-(4-methoxy-3-(3-methylbut-2-enyloxy)phenylamino)thiazole-4-carboxylate] returned an IC50 with MT-2 human T-cells (Homo sapiens, MT2) of 15 µM. `COCc1ccnc(Nc2ccc(Cl)c(OCC=C(C)C)c2)n1` [Compound 9l] had a CC50 in the series on MT-2 human T-cells (setting [7]) greater than 25 µM.

In the series with MT-2 human T-cells (setting [7]), `CC(C)=CCOc1cc(Nc2nccc(CO)n2)ccc1Cl` [Compound 9m] came in with a CC50 of 0.22 µM. `COc1ccnc(Nc2ccc(Cl)c(Oc3ccccc3C)c2)n1` [Compound 11e]: the midpoint of cytotoxicity with MT-2 human T-cells (Table 2b, MT-2 cells), the CC50, lay at 13 µM. Turning to `CC(C)=CC(C)Oc1cc(Nc2nccs2)ccc1Cl` (stereo not shown) [Compound 19d, N-(4-Chloro-3-(4-methylpent-3-en-2-yloxy)phenyl)thiazol-2-amine], in the series on MT-2 human T-cells (setting [8]), the IC50 turned out to be 22 µM. On the same count and under the same terms, the same measure for `N#Cc1ccc(Nc2nccs2)cc1OC1=CCCC1` [Compound 20h, N-(4-Cyano-3-(cyclopentenyloxy)phenyl)thiazol-2-amine]: 1.7 µM; for `CC1=C(COc2cc(Nc3nccs3)ccc2Cl)CCC1` [Compound 21d, N-(4-Chloro-3-((2-methylcyclopent-1-enyl)methoxy)phenyl)thiazol-2-amine]: 2.5 µM; for `Clc1ccc(Nc2nccs2)cc1OCC1CCCCC1` [Compound 22d, N-(4-Chloro-3-(cyclohexylmethoxy)phenyl)thiazol-2-amine]: 12 µM. On to `CCCCCCCOc1cc(Nc2nccs2)ccc1Cl` [Compound 23d, N-(4-Chloro-3-(hexylmethoxy)phenyl)thiazol-2-amine], for which, in the series with MT-2 human T-cells (setting [8]), the IC50 was found to be 15 µM. On to `CC(C)=CCOc1cc(Nc2ccccn2)ccc1C` [Compound 30b, N-(4-Methyl-3-(3-methylbut-2-enyloxy)phenyl)pyridin-2-amine], for which, in the series with MT-2 human T-cells (setting [9]), the half-maximal inhibitory concentration (IC50) came out at 35 µM. The same measure, in the same setting: the same measure for `CC(C)=CCOc1cc(Nc2ccccn2)ccc1Cl` [Compound 30d, N-(4-Chloro-3-(3-methylbut-2-enyloxy)phenyl)pyridin-2-amine]: 15 µM; for `CC(C)=CCOc1cc(Nc2ccccn2)ccc1C#N` [Compound 30h, N-(4-Cyano-3-(3-methylbut-2-enyloxy)phenyl)pyridin-2-amine]: 0.29 µM; for `CC(C)=CCOc1cc(Nc2ccnc(N)n2)ccc1C` [Compound 45b, N^4-(4-Methyl-3-(3-methylbut-2-enyloxy)phenyl)pyrimidin-2,4-diamine]: 0.6 µM. Same read-out and setting: the same measure for `CC(C)=CCOc1cc(Nc2ccnc(N)n2)ccc1Cl` [Compound 45d, N^4-(4-Chloro-3-(3-methylbut-2-enyloxy)phenyl)pyrimidin-2,4-diamine]: 2 µM. Consider `CC(C)=CC(C)Oc1cc(Nc2ncccn2)ccc1Cl` (stereo not shown) [Compound 46, N-(4-chloro-3-(4-methylpent-3-en-2-yloxy)phenyl)pyrimidin-2-amine], for which, in the series with MT-2 human T-cells (Homo sapiens, MT2, Table 2a, cytotoxicity, MT-2 cells, read-out: IC50), the half-maximal inhibitory concentration (IC50) turned out to be 22 µM. As to `CC1=C(COc2cc(Nc3ncccn3)ccc2Cl)CCC1` [Compound 47], in the series with MT-2 human T-cells (Table 2a, cytotoxicity, MT-2 cells, read-out: IC50), the IC50 was 2.5 µM. On to `Cc1ccnc2c1NC(=O)c1cccnc1N2C1CC1` [Nevirapine, nevirapine, reference compound], for which the IC50 in the series with MT-2 human T-cells (setting [9]) and in the series on MT-2 human T-cells (setting [10]) was greater than 10 µM in each case. Also, the CC50 in the series with MT-2 human T-cells (setting [7]) is greater than 10 µM.

Take `Cc1cc(C#N)cc(C)c1Oc1nc(Nc2ccc(C#N)cc2)nc(N)c1Br` [TMC125, etravirine, reference compound]: the IC50 with MT-2 human T-cells (setting [10]) was greater than 1 µM. The CC50 with MT-2 human T-cells (setting [7]) was greater than 1 µM. For `Cc1cn([C@H]2C=C[C@@H](CO)O2)c(=O)[nH]c1=O` [d4T, Stavudine, reference compound], the EC50 in the series with IIIB strain of HIV-1 (Human immunodeficiency virus 1, IIIB, text b104, read-out: anti-HIV activities in our assay) worked out at 3 µM. “(2-3-(3-Methylbut-2-enyloxy)phenylamino)thiazol-4-yl)methanol [Compound 10a]”: the IC50 in the series on MT-2 human T-cells (Table 2, cytotoxicity, MT-2 cells, read-out: IC50) came to 38 µM. As to “Ethyl 2-(4-methoxy-3-(3-methylbut-2-enyloxy)phenylamino)thiazole-4-carboxylate [Compound 9c]”, the EC50 in the series on IIIB strain of HIV-1 (setting [11]) is 0.075 µM.

On to “Ethyl 2-(4-methyl-3-(3-methylbut-2-enyloxy)phenylamino)thiazole-4-carboxylate [Compound 9b]”, for which the EC50 in the series on IIIB strain of HIV-1 (setting [11]) was found to be 0.01 µM; in the series on IIIB strain of HIV-1 (Table 2b, derivatives of pyrimidine 11, NA for EC50 > CC50, read-out: EC50) it was 0.01 µM.

The values above are taken from patent US9018209B2, “Compounds and methods for the treatment of viruses and cancer” (Yale University, priority 2005, dated 2015).
